The nature of data set [1]: Two-component Cys-Cys stapling with bis-hypervalent iodine reagents 8c-8e (3.0 equiv), DIPEA (2.5 equiv), overnight, preparative RP-HPLC. The settings on record: the molecule shown is the open-chain precursor, DMF, 2.0 mM, 37.0 °C.
For data set [2] the following is noted: the molecule shown is the open-chain precursor, scale: % relative absorbance at 210 nm vs linear peptide standard.

Like-named read-outs stand apart in the source and are kept apart here.

For 3 substances, ring closure, isolated yield (% isolated yield) and ring closure, conversion by HPLC results are on record in article PMC8048981, “Cys–Cys and Cys–Lys Stapling of Unprotected Peptides Enabled by Hypervalent Iodine Reagents” (Angewandte Chemie (International Ed. in English), 2021).

“Ac-QSQQTFC(S-C≡C-Si(iPr)2-O-Si(iPr)2-C≡C-I[bis-CF3 benziodoxole])NLWRLLCQN-NH2”: the ring closure, isolated yield (% isolated yield) in data set [1] (33-membered ring) stood at 17. Moreover, in data set [2] (33-membered ring, DMF, 1.0 mM, 37.0 °C, 4.0 h), the ring closure, conversion by HPLC came out at 30.
For “Ac-YGGEAAREAC(S-C≡C-Si(iPr)2-C≡C-I[bis-CF3 benziodoxole])ARECAARE-NH2”, the ring closure, isolated yield (% isolated yield) in data set [1] (22-membered ring) was 48. In data set [2] (22-membered ring), this substance registered a ring closure, conversion by HPLC of 72.
As to “Ac-YGGEAAREAC(S-C≡C-Si(iPr)2-O-Si(iPr)2-C≡C-I[bis-CF3 benziodoxole])ARECAARE-NH2”, the ring closure, isolated yield (% isolated yield) in data set [1] (24-membered ring) amounted to 19. For the same substance, the ring closure, conversion by HPLC in data set [2] (24-membered ring) worked out at 9.
